Experimental data taken from paper PMC10056443, “Derivatives of Amaryllidaceae Alkaloid Ambelline as Selective Inhibitors of Hepatic Stage of Plasmodium berghei Infection In Vitro” (Pharmaceutics, 2023).
Where two headings read alike, the source gives them in different places.

What was measured:
[1] = tested on: hepatic stage of P. berghei; assay: In vitro activity against P. berghei hepatic stages (luciferase-expressing sporozoites in Huh-7 cells, bioluminescence); assay type: cell-based, Plasmodium berghei; design: INFECTION (IC50 determination): unit not given here; conditions: for activity at 1 µM / activity at 10 µM / IC50: Plasmodium berghei; for activity at 1 µM / activity at 10 µM: Huh-7, 48 h, read-out: INFECTION Ø screening; for activity at 1 µM / activity at 10 µM / INFECTION (IC50 determination): DMSO = 100
Summary of the method: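 Huh-7 hepatoma cells pretreated with compounds 1 h, then infected with luciferase-expressing P. berghei sporozoites (1 × 10^4/well, 1:1 ratio) and incubated at 37 °C.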

Huh-7 cell line = assay: Huh-7 cell confluency by alamarBlue assay during hepatic-stage test; assay type: cell-based
Summary of the method: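 Huh-7 human hepatoma cells pre-treated with compound in infection medium 1 h before luciferase-expressing P. berghei sporozoites were added (1:1, 1 × 10^4 per well), then incubated 46 h at 37 °C, 5% CO2. Confluency assessed indirectly by alamarBlue; IC50 from nonlinear-regression fit of normalized dose-response curves.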

[2] = tested on: P. falciparum NF54 ring-stage synchronized cultures; assay: In vitro activity against P. falciparum blood stages (flow cytometry, SYBR green I); assay type: cell-based, Plasmodium falciparum; conditions: Control = 7.76333, 48 h
Experimental: Activity against the blood stage of P. falciparum infection was assessed by flow cytometry analysis following the incubation of either test compounds or the drug vehicle (DMSO) with ring-stage synchronized parasite cultures, as previously described. Stock solutions of the test compounds, as well as of the positive control compound chloroquine, were prepared in DMSO and diluted to test concentrations in complete malaria culture medium (CMCM), i.e., 1640 RPMI medium supplemented with 25 mM HEPES, 2.4 mM L-glutamine, 50 µg/mL gentamicin, 0.5% w/v Albumax, 11 mM glucose, 1.47 mM hypoxanthine, and 37.3 mM NaHCO3. Samples at tested concentration were then incubated with ring-stage synchronized cultures of P. falciparum NF54 at 2.5% hematocrit and at approximately 1% parasitemia in 96-well plates at 37 °C in a 5% CO2 and 5% O2 atmosphere. Forty-eight hours post incubation, parasite load was assessed by flow cytometry, upon staining with the DNA-specific dye SYBR green I. Approximately 100,000 events were analyzed in each flow cytometry measurement.

[3] = Cytotoxicity assessment in vitro (MTT assay); assay type: cell-based; conditions: human
Summary of the method: (§1)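 Human HepG2 hepatocellular carcinoma cells (passage 20–25) were treated with compound at 10 μM in triplicate for 24 h at 37 °C, 5% CO2. Viability was then measured by MTT: 3 h incubation, formazan dissolved in DMSO, absorbance read at 570 nm.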

HepG2 cells = assay: Cytotoxicity assessment in vitro (MTT assay); assay type: cell-based
Summary of the method: as §1

[4] = Huh-7, mean, unit (Table 1: µM), read-out: Antiplasmodial activity - Ø IC50
[5] = Huh-7, replicate 1, unit (Table 1: µM), read-out: Antiplasmodial activity - IC50 determination, 1. measurement
[6] = Huh-7, replicate 2, unit (Table 1: µM), read-out: Antiplasmodial activity - IC50 determination, 2. measurement
[7] = Huh-7, replicate 3, unit (Table 1: µM), read-out: Antiplasmodial activity - IC50 determination, 3. measurement
[8] = hepatic stage, Huh-7 cells, parasite load 48 h post-infection, read-out: IC50 P. berghei

| Compound | activity at 1 µM [1] | activity at 10 µM [1] | IC50 [1, 4] | IC50 [1, 5] | IC50 [1, 6] | IC50 [1, 7] | IC50 [1, 8] | CELL CONFLUENCY Ø screening (Huh-7 cell line; human, 46 h, 1 µM, pH 7) | CELL CONFLUENCY Ø screening (Huh-7 cell line; human, 46 h, 10 µM, pH 7) | Ø screening, blood stage parasite load ([2]; at 10 nM) | Ø screening, blood stage parasite load ([2]; at 500 nM) | Ø screening, blood stage parasite load ([2]; at 100 nm) | viability at 24 h, 10 µM [3] | 1. screening of cytotoxic potential, HepG2 cell line (HepG2 cells; human, 24 h, 10 µM) | 2. screening of cytotoxic potential, HepG2 cell line (HepG2 cells; human, 24 h, 10 µM) | 3. screening of cytotoxic potential, HepG2 cell line (HepG2 cells; human, 24 h, 10 µM) | Ø screening, HepG2 (sheet Graphs) (HepG2 cells; human, 24 h, 10 µM) | other results |
| --- | --- | --- | --- | --- | --- | --- | --- | --- | --- | --- | --- | --- | --- | --- | --- | --- | --- | --- |
| CCCCC(=O)O[C@@H]1CN2Cc3c(cc4c(c3OC)OCO4)[C@@]13C=C[C@H](OC)C[C@@H]23 [28d, 11-O-Pentanoylambelline] | 93.9% | 25.2% | 4.08 µM | 5.65 µM | 2.14 µM | 4.44 µM | 4.08 ± 1.78 µM | 95.31 | 93.14 | 6.99 | 6.78 | 7.043 | 71 ± 7% | 73.78 | 63.13 | 76.88 | 71.26 |  |
| COc1c2c(cc3c1OCO3)[C@]13C=C[C@H](OC)C[C@H]1N(C2)C[C@H]3OC(=O)c1ccccc1 [28e, 11-O-Benzoylambelline] | 45.7% | 2.18% | 0.726 µM | 0.662 µM | 0.646 µM | 0.871 µM | 0.726 ± 0.126 µM | 94.15 | 86.56 | 7.597 | 7.383 | 7.907 | 95 ± 7% | 98.77 | 99.24 | 87.15 | 95.05 |  |
| COc1c2c(cc3c1OCO3)[C@]13C=C[C@H](OC)C[C@H]1N(C2)C[C@H]3OC(=O)c1ccc(C)cc1 [28g, 11-O-(4-Methylbenzoyl)ambelline] | 23.1% | 0.21% | 0.402 µM | 0.345 µM | 0.46 µM |  | 0.402 ± 0.081 µM | 89.36 | 93.96 | 5.187 | 4.26 | 4.963 | 50 ± 6% | 50.18 | 56.25 | 43.46 | 49.96 |  |
| COc1c2c(cc3c1OCO3)[C@]13C=C[C@H](OC)C[C@H]1N(C2)C[C@H]3OC(=O)c1cc(C)cc(C)c1 [28h, 11-O-(3,5-Dimethylbenzoyl)ambelline] | 8.82% | 0.852% | 0.1 µM | 0.0992 µM | 0.0828 µM | 0.118 µM | 0.1 ± 0.018 µM |  |  | 8.137 | 6.735 | 6.763 |  |  |  |  |  | CELL CONFLUENCY Ø screening (Huh-7 cell line; at 1 μM, DMSO = 100, in % (unit assumed)): 93.78; CELL CONFLUENCY Ø screening (Huh-7 cell line; at 10 μM, DMSO = 100, in % (unit assumed)): 54.73; viability at 24 h, 10 µM ([3]; c = 10 µM, 24 h, MTT, read-out: HepG2 % of cell viability compared to non-treated control (100%)): 74 ± 13%; Ø screening, HepG2 (sheet Graphs) (HepG2 cells; c = 10 μM, DMSO = 100, in %): 74.24; 1. screening of cytotoxic potential, HepG2 cell line (HepG2 cells; c = 10 μM, replicate 1, in %): 61.45; 2. screening of cytotoxic potential, HepG2 cell line (HepG2 cells; c = 10 μM, replicate 2, in %): 88.22; 3. screening of cytotoxic potential, HepG2 cell line (HepG2 cells; c = 10 μM, replicate 3, in %): 73.05 |
| COc1cc(OC)cc(C(=O)O[C@@H]2CN3Cc4c(cc5c(c4OC)OCO5)[C@@]24C=C[C@H](OC)C[C@@H]34)c1 [28m, 11-O-(3,5-Dimethoxybenzoyl)ambelline] | 4.97% | 0.465% | 0.0483 µM | 0.0413 µM | 0.0646 µM | 0.0389 µM | 0.048 ± 0.014 µM | 75.47 | 66.23 | 7.527 | 6.707 | 7.237 | 87 ± 6% | 83.99 | 94 | 84.39 | 87.46 | INFECTION (IC50 determination) ([1]; at 0.0001 µM): 91.9843; INFECTION (IC50 determination) ([1]; at 0.001 µM): 94.6285; INFECTION (IC50 determination) ([1]; at 0.01 µM): 82.6124; INFECTION (IC50 determination) ([1]; at 0.05 µM): 46.9733; INFECTION (IC50 determination) ([1]; at 0.1 µM): 24.6613; INFECTION (IC50 determination) ([1]; at 0.5 µM): 8.963; Huh-7 cell viability (Huh-7 cell line): cell viability was not affected at antiplasmodial-active concentrations; CELL CONFLUENCY (IC50 determination) (Huh-7 cell line; human, 46 h, 0.0001 µM, pH 7): 108.569; CELL CONFLUENCY (IC50 determination) (Huh-7 cell line; human, 46 h, 0.001 µM, pH 7): 114.348; CELL CONFLUENCY (IC50 determination) (Huh-7 cell line; human, 46 h, 0.01 µM, pH 7): 105.456; CELL CONFLUENCY (IC50 determination) (Huh-7 cell line; human, 46 h, 0.05 µM, pH 7): 107.735; CELL CONFLUENCY (IC50 determination) (Huh-7 cell line; human, 46 h, 0.1 µM, pH 7): 107.6; CELL CONFLUENCY (IC50 determination) (Huh-7 cell line; human, 46 h, 0.5 µM, pH 7): 97.6188 |
| COc1c2c(cc3c1OCO3)[C@]13C=C[C@H](OC)C[C@H]1N(C2)C[C@H]3OC(=O)c1cccc([N+](=O)[O-])c1 [28p, 11-O-(3-Nitrobenzoyl)ambelline] | 48.1% | 1.45% | 1.53 µM | 1.46 µM | 1.36 µM | 1.78 µM | 1.53 ± 0.22 µM | 87.05 | 79.58 | 4.593 | 4.517 | 4.83 | 75 ± 6% | 70.36 | 72.83 | 81.93 | 75.04 |  |
